Experimental data taken from PubChem BioAssay AID2060355 (Molecular Pharmacology Branch, DTP, NCI, 2025).

System: 485368-065-R4-J2-PDC spheroids with HUVEC/MSC, viability
Assay: Anticancer human tumor 485368-065-R4-J2-PDC patient-derived pancreatic carcinoma cell line growth inhibition [TAK]
Details: for IC50: curve of first compound; for viability, T/C: stronger effect = lower value
Source text: Combinatorial screen of targeted agents with TAK-243 and ipatasertib in multi-cell type tumor spheroids
A high-throughput screen of multi-cell type tumor spheroids was designed to identify active combinations of targeted small molecules and TAK-243 or ipatasertib. Complex spheroids include a stromal component modeled by human endothelial cells (HUVEC) and fibroblasts modeled by human mesenchymal stem cells (MSCs). The concentration ranges selected for each drug and investigational agent were based upon clinically achievable concentrations if the clinical Cmax of the agent was known.
Compounds. The drugs and investigational agents: TAK-243 (785004), ipatasertib (767898), everolimus (733504), selumetinib (741078), bortezomib (756655), trametinib (758246), ixazomib (758254), vemurafenib (761431), dabrafenib (764134), sapanisertib (764658), alpelisib (765974), and copanlisib (816437), were obtained from the National Cancer Institute (NCI) Developmental Therapeutics Program Chemical Repository. The FDA-approved anticancer drug set is available from the NCI Developmental Therapeutics Program. […] The stock solutions were prepared in dimethyl sulfoxide (DMSO, Sigma-Aldrich, St. Louis, MO, cat. D2650) at 800-fold the tested concentration and stored at -70 degrees C prior to their use. All drugs and investigational agents were tested over a range starting from a high concentration at or near the clinical Cmax and decreasing in half-log increments. If the clinical Cmax for an agent had not been determined, the highest concentration tested was 10 microM.
NCI60 Cell Culture. NCI60 cell lines were obtained from the NCI Developmental Therapeutics Program Tumor Repository. For each lot of cells, the Repository performed Applied Biosystems AmpFLSTR Identifiler testing with PCR amplification to confirm consistency with the published Identifier STR profile for each cell line. Cells were kept in continuous culture for no more than 20 passages. The optimal seeding densities for each of the cell lines at each time point assessed were determined prior to performing the concentration response studies. Briefly, the NCI60 human tumor lines were grown as monolayers in RPMI 1640 medium supplemented with 10% FBS and 2 mmol/L L-glutamine.
An additional 2 lines were from the NCI60 cell line panel including melanomas, MALME-3M and SK-MEL-2. Pooled donor human umbilical vein endothelial cells (HUVEC, Lonza, cat. CC-2519) and human mesenchymal stem cells (hMSC, Lonza, cat. PT-2501) were purchased from Lonza (Walkersville, MD).
PDMR cell lines were grown in complete medium (DC medium): Dulbecco's modified Eagle's medium (DMEM)/F12 supplemented with 5% fetal bovine serum (FBS), 2 mM L-glutamine, 100 U/mL penicillin and 100 µg/ml streptomycin, 0.4 µg/ml hydrocortisone, 10 ng/ml epidermal growth factor (EGF) recombinant human protein, 24 µg/mL adenine, and 0.1 mg/mL primocin. During culture from frozen stock vials, PDMR cells were cultured in the same medium containing 10 µM Y-27632 (see Table 3). The PDCs were cultured in complete DMEM/F12 media without 10 microM Y-27632 dihydrochloride for at least two passages prior to the screen. The pooled donor HUVEC and hMSC were cultured in endothelial cell growth medium 2 (PromoCell, Heidelberg, Germany, cat. C-22011) and mesenchymal stem cell growth medium 2 (PromoCell, cat. C-28009), respectively. For all experiments, HUVEC and hMSC were used at passages </=5.
For the pre-screen, cell seeding densities were determined from a titration spanning the range from 5,000 to 313 cells per well. The mct-spheroids including 60% malignant cells, 25% HUVEC and 15% MSC dispensed as a mixture into U-bottom Ultra-Low Attachment 384-well plates (Corning, NY)
High-throughput Drug Combination Screening.
Prior to their inoculation into 384-well plates, malignant cells, HUVEC, and hMSC were removed from T flasks using TrypLE express (Thermo Fisher Scientific, cat. 12605036) and harvested by centrifugation for 5 min at 233 x g. […]
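Further: spheroids exposed to compounds for seven days before readout.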
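Wherever viability, T/C is given: 100% = DMSO vehicle control wells.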

SMILES: CC(C)CC(NC(=O)C(Cc1ccccc1)NC(=O)c1cnccn1)B(O)O (stereo not given) + CC(C)NCC(C(=O)N1CCN(c2ncnc3c2C(C)CC3O)CC1)c1ccc(Cl)cc1
- IC50 (second compound 0.3 µM): 5.9 nM
- IC50 (second compound 0.949 µM): 5.92 nM
- IC50 (second compound 3 µM): 5.94 nM
- IC50 (second compound 9.49 µM): 5.13 nM
- IC50 (second compound 30 µM): 4.63 nM
- viability, T/C (second compound 0.3 µM, first compound 31.6 pM): 98.2%
- viability, T/C (second compound 0.3 µM, first compound 0.0001 µM): 96.9%
- viability, T/C (second compound 0.3 µM, first compound 0.000316 µM): 90.6%
- viability, T/C (second compound 0.3 µM, first compound 0.001 µM): 92.2%
- viability, T/C (second compound 0.3 µM, first compound 0.00316 µM): 108%
- viability, T/C (second compound 0.3 µM, first compound 0.01 µM): 10%
- viability, T/C (second compound 0.949 µM, first compound 31.6 pM): 94.5%
- viability, T/C (second compound 0.949 µM, first compound 0.0001 µM): 94.3%
- viability, T/C (second compound 0.949 µM, first compound 0.000316 µM): 103%
- viability, T/C (second compound 0.949 µM, first compound 0.001 µM): 98.4%
- viability, T/C (second compound 0.949 µM, first compound 0.00316 µM): 102%
- viability, T/C (second compound 0.949 µM, first compound 0.01 µM): 9.62%
- viability, T/C (second compound 3 µM, first compound 31.6 pM): 94.3%
- viability, T/C (second compound 3 µM, first compound 0.0001 µM): 101%
- viability, T/C (second compound 3 µM, first compound 0.000316 µM): 98.5%
- viability, T/C (second compound 3 µM, first compound 0.001 µM): 92.2%
- viability, T/C (second compound 3 µM, first compound 0.00316 µM): 94.9%
- viability, T/C (second compound 3 µM, first compound 0.01 µM): 12.9%
- viability, T/C (second compound 9.49 µM, first compound 31.6 pM): 97%
- viability, T/C (second compound 9.49 µM, first compound 0.0001 µM): 94.2%
- viability, T/C (second compound 9.49 µM, first compound 0.000316 µM): 91.1%
- viability, T/C (second compound 9.49 µM, first compound 0.001 µM): 95.2%
- viability, T/C (second compound 9.49 µM, first compound 0.00316 µM): 79.7%
- viability, T/C (second compound 9.49 µM, first compound 0.01 µM): 8.65%
- viability, T/C (second compound 30 µM, first compound 31.6 pM): 78.5%
- viability, T/C (second compound 30 µM, first compound 0.0001 µM): 81.9%
- viability, T/C (second compound 30 µM, first compound 0.000316 µM): 77.6%
- viability, T/C (second compound 30 µM, first compound 0.001 µM): 78%
- viability, T/C (second compound 30 µM, first compound 0.00316 µM): 71.2%
- viability, T/C (second compound 30 µM, first compound 0.01 µM): 6.97%

SMILES: Cn1cnc2c(F)c(Nc3ccc(Br)cc3Cl)c(C(=O)NOCCO)cc21 + CC(C)NCC(C(=O)N1CCN(c2ncnc3c2C(C)CC3O)CC1)c1ccc(Cl)cc1
- IC50 (second compound 0.3 µM): 261 nM
- IC50 (second compound 0.949 µM): 51 nM
- IC50 (second compound 3 µM): 32.6 nM
- IC50 (second compound 9.49 µM): 17.1 nM
- IC50 (second compound 30 µM): 9.58 nM
- viability, T/C (second compound 0.3 µM, first compound 0.00949 µM): 76.1%
- viability, T/C (second compound 0.3 µM, first compound 0.03 µM): 69.6%
- viability, T/C (second compound 0.3 µM, first compound 0.0949 µM): 59%
- viability, T/C (second compound 0.3 µM, first compound 0.3 µM): 48.5%
- viability, T/C (second compound 0.3 µM, first compound 0.949 µM): 37%
- viability, T/C (second compound 0.3 µM, first compound 3 µM): 23%
- viability, T/C (second compound 0.949 µM, first compound 0.00949 µM): 70%
- viability, T/C (second compound 0.949 µM, first compound 0.03 µM): 56.2%
- viability, T/C (second compound 0.949 µM, first compound 0.0949 µM): 42.9%
- viability, T/C (second compound 0.949 µM, first compound 0.3 µM): 30.3%
- viability, T/C (second compound 0.949 µM, first compound 0.949 µM): 21.7%
- viability, T/C (second compound 0.949 µM, first compound 3 µM): 13.5%
- viability, T/C (second compound 3 µM, first compound 0.00949 µM): 72.5%
- viability, T/C (second compound 3 µM, first compound 0.03 µM): 51.6%
- viability, T/C (second compound 3 µM, first compound 0.0949 µM): 31.2%
- viability, T/C (second compound 3 µM, first compound 0.3 µM): 19.4%
- viability, T/C (second compound 3 µM, first compound 0.949 µM): 13.6%
- viability, T/C (second compound 3 µM, first compound 3 µM): 10.7%
- viability, T/C (second compound 9.49 µM, first compound 0.00949 µM): 60.4%
- viability, T/C (second compound 9.49 µM, first compound 0.03 µM): 40.6%
- viability, T/C (second compound 9.49 µM, first compound 0.0949 µM): 24.1%
- viability, T/C (second compound 9.49 µM, first compound 0.3 µM): 17.4%
- viability, T/C (second compound 9.49 µM, first compound 0.949 µM): 10.9%
- viability, T/C (second compound 9.49 µM, first compound 3 µM): 8.27%
- viability, T/C (second compound 30 µM, first compound 0.00949 µM): 50.1%
- viability, T/C (second compound 30 µM, first compound 0.03 µM): 33.9%
- viability, T/C (second compound 30 µM, first compound 0.0949 µM): 21.2%
- viability, T/C (second compound 30 µM, first compound 0.3 µM): 15.5%
- viability, T/C (second compound 30 µM, first compound 0.949 µM): 11.1%
- viability, T/C (second compound 30 µM, first compound 3 µM): 9.61%
